Reference: patent US7998938B2, “Cancer treatment by combined inhibition of proteasome and telomerase activities” (Geron Corporation, priority 2005, dated 2011)
Strand notation (5' to 3'): a small letter for the sugar, then the base; units joined by * are phosphorothioate-linked, units joined directly phosphodiester-linked; [ ] holds rarer units or linkages, { } end groups; capitals alone tell only the bases. [NPS] = N3'→P5' thiophosphoramidate internucleoside linkage; [NP] = N3'→P5' phosphoramidate internucleoside linkage; d = 2'-deoxy (DNA)

Tested on: telomerase
Assay: Inhibition of telomerase, biochemical (FlashPlate) assay
Parameters: species or system human
Settings: NPS linkages unless NP backbone stated

Compound | IC50 [nM]
Oligo-T 10-mer: Oligonucleotide TTTTTTTTTT (SEQ ID NO: 27) | > 1000
Duplex of GRN163 sequence: Duplex TAGGGTTAGACAA / ATCCCAATCTGTT (chemistry not fully specified; one strand is listed 3' to 5') | 8.9 ± 3
Telomere repeat unit: Oligonucleotide TTAGGG (SEQ ID NO: 26) | > 1000
Alternative targeting 11-mer: NPS oligonucleotide GTTAGGGTTAG (SEQ ID NO: 16) (DNA dG[NPS]dT[NPS]dT[NPS]dA[NPS]dG[NPS]dG[NPS]dG[NPS]dT[NPS]dT[NPS]dA[NPS]dG) | 0.51 ± 0.13
Alternative targeting 13-mer: NPS oligonucleotide CAGTTAGGGTTAG (SEQ ID NO: 13), complementary to nucleotides 46-58 of SEQ ID NO: 1 (DNA, all [NPS], methylation of C not given here) | 0.049 ± 0.007
Mismatch of alternative targeting 11-mer: NPS oligonucleotide GTTGAGTGTAG (SEQ ID NO: 25) (DNA dG[NPS]dT[NPS]dT[NPS]dG[NPS]dA[NPS]dG[NPS]dT[NPS]dG[NPS]dT[NPS]dA[NPS]dG) | 177 ± 93
Complement of GRN163 sequence: NPS oligonucleotide TTGTCTAACCCTA (SEQ ID NO: 24) (DNA, all [NPS], methylation of C not given here) | 1000 ± 46
11-mer; truncation of GRN163 sequence: NPS oligonucleotide TAGGGTTAGAC (SEQ ID NO: 15) (DNA, all [NPS], methylation of C not given here) | 0.85 ± 0.35
12-mer; truncation of GRN163 sequence: NPS oligonucleotide TAGGGTTAGACA (SEQ ID NO: 14) (DNA, all [NPS], methylation of C not given here) | 0.36 ± 0.2
Mismatch of GRN163 sequence: NPS oligonucleotide TAGGTGTAAGCAA (SEQ ID NO: 23) (DNA, all [NPS], methylation of C not given here) | 80 ± 31
Mismatch of GRN163 sequence with NP backbone: TAGGTGTAAGCAA with NP backbone (DNA, all [NP], methylation of C not given here) | > 1000

Tested on: CAG MM cell line
Assay: not given
Type: in vivo, NOD/SCID mice
Settings: Group 4, intravenous 0.25 mg/kg; p<0.01
Experimental: The CAG MM cell line (telomere length 2.7 Kb) was transfected with a retroviral vector encoding a triple fusion gene for HSV-TK, firefly luciferase and green fluorescence protein, and whole animal bioluminescence imaging was undertaken in a disseminated NOD/SCID model with extensive spinal cord and bone marrow tumor infiltration. NOD/SCID mice were not irradiated with gamma ray before cell implantation. […] Bortezomib was administered intravenously at a dose of 0.25 mg/kg (Table 1).
The results are discussed in Section IVA above, with reference to FIGS. 4A-B.

Compound | survival relative to PBS controls
CC(C)C[C@H](NC(=O)[C@H](Cc1ccccc1)NC(=O)c1cnccn1)B(O)O [bortezomib] | significant increase
